Consider 2 substances from patent US9885044B2, “Polynucleotides and methods for inhibiting cancer cells” (Chang Gung Memorial Hospital, Linkou, priority 2015, dated 2018).

Data set [1] relates to p53-deficient and P53-proficient cancer cells. As to the kind of experiment: Proliferation rate of cancer cells after shPuf-A transduction. It counts as cell-based. The conditions noted are these: p53-deficient and P53-proficient cancer cells (FIG. 7F). The source says:
(§1) FIG. 7A is an assembly of images showing the effect of control shRNA, shPuf-A-1 and Puf-A-2 on Puf-A expression and cleaved form of PARP1, by transducing control shRNA, shPuf-A-1 and Puf-A-2 into the following p53-deficient and p53-proficient cell lines: A549, H460, U87, HCT116, H1299, CL1-5, MB231, LN229 and T98. FIG. 7B is a series of flow cytometry (FACS) images, illustrating the cell-cycle of Puf-A depleted (shPuf-A transduced) p53 proficient (p53 wild type) and p53 deficient (p53 defective) cancer cell lines. FIG. 7C is a series of Western blot images showing the effect shPuf-A-1 transduction on the expression of Puf-A, LC3 (marker for autophagosome), LAMP2 (marker for lysosome) and p62 (an autophagy substrate) in p53^+/+HCT116, p53^−/−HCT116, and p53^−/−H1299 cancer cell lines. FIG. 7D is a Western Blot image illustrating the effect of suppressing p53 and Puf-A in p53-proficient cells (H460). FIG. 7E is a series of immunofluorescence images illustrating the effect of silencing Puf-A, by shPuf-A-1 transduction, on LC3 (green), Lamp1 (red) and DAPI (blue) expression in p53 proficient (p53^+/+) HCT116, P53 deficient (p53^−/−) HCT116 and H1299 cancer cells. FIG. 7F is a series of graphs illustrating reduced proliferation rate of p53^−/− HCT116 and H1299 cells after shPuf-A-1 and shPuf-A-2 transduction compared to control shRNA transduction. […]

The test system of data set [2] is LC3-II, LAMP2, p62. As to the kind of experiment: Autophagy markers after shPuf-A transduction (Western blot). Type of data set: cell-based. The conditions noted are these: p53-proficient cells (p53+/+ HCT116).
From the text: as §1
(In general: A western blot detects proteins with antibodies after separation by electrophoresis.)

Data set [3] deals with LC3-II, LAMP1. As to the kind of experiment: Immunofluorescence staining of LC3-II and LAMP1 after shPuf-A-1 transduction. Type of data set: cell-based. An excerpt:
FIG. 7A is an assembly of images showing the effect of control shRNA, shPuf-A-1 and Puf-A-2 on Puf-A expression and cleaved form of PARP1, by transducing control shRNA, shPuf-A-1 and Puf-A-2 into the following p53-deficient and p53-proficient cell lines: A549, H460, U87, HCT116, H1299, CL1-5, MB231, LN229 and T98. FIG. 7B is a series of flow cytometry (FACS) images, illustrating the cell-cycle of Puf-A depleted (shPuf-A transduced) p53 proficient (p53 wild type) and p53 deficient (p53 defective) cancer cell lines. FIG. 7C is a series of Western blot images showing the effect shPuf-A-1 transduction on the expression of Puf-A, LC3 (marker for autophagosome), LAMP2 (marker for lysosome) and p62 (an autophagy substrate) in p53^+/+HCT116, p53^−/−HCT116, and p53^−/−H1299 cancer cell lines. FIG. 7D is a Western Blot image illustrating the effect of suppressing p53 and Puf-A in p53-proficient cells (H460). FIG. 7E is a series of immunofluorescence images illustrating the effect of silencing Puf-A, by shPuf-A-1 transduction, on LC3 (green), Lamp1 (red) and DAPI (blue) expression in p53 proficient (p53^+/+) HCT116, P53 deficient (p53^−/−) HCT116 and H1299 cancer cells. FIG. 7F is a series of graphs illustrating reduced proliferation rate of p53^−/− HCT116 and H1299 cells after shPuf-A-1 and shPuf-A-2 transduction compared to control shRNA transduction.

In data set [4] the test system is Puf-A proteins. As to the kind of experiment: Puf-A protein expression after shPuf-A transduction of cancer cell lines (Western blot). As to conditions: A549, H460, H1299, CL1-5, HCT116, MB231, U87, LN229, T98 cells. It counts as cell-based.
From the text: as §1, with “cells.” for “cells. FIG. 7F is a series of graphs illustrating reduced proliferation rate of p53^−/− HCT116 and H1299 cells after shPuf-A-1 and shPuf-A-2 transduction compared to control shRNA transduction.”
The biological function of Puf-A on cancer cells was assessed, using lung cancer cells (A549, H460, H1299 and CL1-5); colorectal cancer cells (HCT116); breast cancer cells (MB231) and glioblastoma cells (U87, LN229 and T98).

The test system of data set [5] is p53 and p21. The data set can be described thus: p53 and p21 protein/RNA expression in p53 proficient cancer cells after Puf-A suppression. It counts as cell-based. As to conditions: A549, H460 or HCT116 p53 proficient cells. The source says: FIG. 8A is a series of Western blot, RT-PCR and Q-PCR images, illustrating shPuf-A1 and shPuf-A2 transduction increases the expression of p53 and p21 and reduces transcripts of PUF-A in the following p53-proficient (p53^+/+) cancer cell lines: A549, H460, and HCT116. FIG. 8B is a series of immunostaining images illustrating the expression of p53 (red) and DAPI (blue, internal control) in p53-proficient (p53^+/+) cancer cell lines A549, H460 and HCT116 cells and P53 deficient (p53^−/−) HCT116 cancer cells after control shRNA and shPuf-A-1 transduction. FIG. 8C is a series of bar graphs illustrating the FACS analyzed cell-cycles of Puf-A depleted cancer cells, A549, H460 and HCT116, with different p53 genotypes.
The effect of Puf-A suppression on the expression level of p53 and p21 protein/RNA in p53 proficient cancer cells was examined, by infecting A549, H460 or HCT116 cancer cells with shPuf-A-1, shPuf-A-2 or control shRNA viral vectors. […] Cell-cycle progression of the same cancer cell lines was analyzed by FACS.

In data set [6] the test system is Puf-A RNA. As to the kind of experiment: Puf-A knockdown by shRNA lentivirus vectors, RT-PCR and Q-PCR. It counts as cell-based, human. As to conditions: for knockdown efficiency on Puf-A expression compared to control shRNA: HCT116 and H1299 cells, Q-PCR (FIG. 6D); for expression level of Puf-A RNA compared to control shRNA: p53-proficient (p53+/+ HCT116) and p53-deficient (p53−/− HCT116, p53−/− H1299) cells, GAPDH internal control. Here is the method: FIG. 6A show the nucleotide sequence of human Puf-A gene (SEQ ID NO:1). […] FIG. 6C and FIG. 6D illustrate the Puf-A knockdown efficiency of control shRNA, shPuf-A-1 and shPuf-A-2 in colorectal cancer cells (HCT116) and lung cancer cells (H1299), determined by RT-PCR and Q-PCR analyses.
The effect of the shRNAs constructs in FIG. 6B on Puf-A expression was evaluated using p53-proficient (p53^+/+ HCT116) and p53-deficient (p53^−/− HCT116 and p53^−/− H1299). The cells were transduced with control shRNA, shPuf-A-1 and shPuf-A-2 lentivirus vectors and Puf-A expression was determined by […] and Q-PCR. […] The knockdown efficiencies of shPuf-A-1 and shPuf-A-2 on Puf-A expression were approximately 90% and 75%, respectively, compare to the control shRNA (FIG. 6D).

Data set [7] has as its system adenoma-bearing LSL-Kras^G12D/p53^flox mice. The data set can be described thus: In vivo evaluation of Puf-A suppression in tumourigenesis (intranasal lentiviral shRNA). As to conditions: lentiviral vector intranasally twice a week for two weeks; sacrificed 6 weeks after Kras^G12D activation and p53 deletion. The source says:
FIG. 5A schematically illustrates the in vivo study design of Puf-A shRNA delivery to knock down Puf-A. FIG. 5B is an assembly of microscopic images illustrating the number of tumor foci in mice administered with of control shRNA or Puf-A shRNA. FIG. 5C is a series of bar graphs illustrating the counted numbers of tumor foci (>250 μm) in mice with adenocarcinoma (left bar graph) and adenoma (right bar graph), after the administration of control or Puf-A-2 shRNA.
An in vivo evaluation of Puf-A suppression in tumourigenesis was performed using LSL-Kras^G12D1p53^flox mice.
FIG. 5A schematically illustrates the study design. LSL-Kras^G12D/p53^flox mice developed adenoma after 2 weeks of Kras^G12D activation and p53 deletion. Lentiviral vector, expressing shPuf-A-2 (a Puf-A shRNA) or control shRNA, was intranasally delivered to adenoma-bearing LSL-Kras^G12D/p53^flox mice twice a week for two weeks. The mice were sacrificed 6 weeks after Kras^G12D activation and p53 deletion.

In the case of “shPuf-A-1: novel short hairpin RNA targeting Puf-A, encoded by SEQ ID NO:2, delivered by lentivirus vector (DNA CCGGGCCTAGCATAGTAAATGACAACTCGAGTTGTCATTTACTATGCTAGGCTTTTTTG)”, the “proliferation rate compared to control shRNA virus” value in data set [1] is “reduced”. The “level of LC3-II expression” value in data set [2] was “slight increase”. Further, the “expression and co-localization of LC3-II and LAMP1” value in data set [3] (p53-deficient cancer cells) is “increase expression and co-localization”. The “LAMP1 around the nuclei” value in data set [3] (p53-proficient cancer cells) was “slight increase”. Also, the “expression level of Puf-A proteins compared to control shRNA” value in data set [4] is given as “significantly reduced”. Moreover, in data set [5], the “expression level of p21 protein or RNA compared to control shRNA” value is given as “significantly increased” and the “expression level of p53 protein or RNA compared to control shRNA” value is given as “significantly increased”. In addition, in data set [6], the “knockdown efficiency on Puf-A expression compared to control shRNA” value is listed as “approximately 90%” and the “expression level of Puf-A RNA compared to control shRNA” value was “significantly reduced”.
On to “shPuf-A-2: novel short hairpin RNA targeting Puf-A, encoded by SEQ ID NO:3, delivered by lentivirus vector (DNA CCGGCGTGTGATCCAGTGTTACATTCTCGAGAATGTAACACTGGATCACACGTTTTTG)”, for which, in data set [7], the “reduction of number of adenocarcinoma focus (>250 μm) vs control shRNA vector” value amounted to 15.4 fold and the “reduction of number of adenoma focus (>250 μm) vs control shRNA vector” value is recorded as 2.6 fold. For the same substance, in data set [1], the “proliferation rate compared to control shRNA virus” value is given as “reduced”. Further, the “level of LC3-II expression” value in data set [2] is listed as “slight increase”. The “expression level of Puf-A proteins compared to control shRNA” value in data set [4] was “significantly reduced”. In data set [5], the “expression level of p21 protein or RNA compared to control shRNA” value is given as “significantly increased” and the “expression level of p53 protein or RNA compared to control shRNA” value was “significantly increased”. In data set [6], the “knockdown efficiency on Puf-A expression compared to control shRNA” value is given as around 75% and the “expression level of Puf-A RNA compared to control shRNA” value is listed as “significantly reduced”.
